In patent US12281122B1, “PI3K inhibitors” (Cogent Biosciences, Inc., priority 2023, dated 2025):
pIC50: −log10 of the molar value.

Legend:
[1] = system: T47D (PI3Kα-H1047R) cell line; experiment: HTRF phospho-AKT(S473) cell assay in T47D cells; assay type: cell-based, human
Description: (§1) Compounds in the present disclosure were tested in a cell based HTRF phospho-AKT(S473) (CisBio/Revvity) assay in human breast cancer cell lines as a measurement of PIK3CA activity through measuring AKT, a downstream effector. The activity of mutant PI3Kα-H1047R and PI3Kα-Wild Type was measured in the T47D (PI3Kα-H1047R) and SKBR3 (PI3Kα-Wild Type) cell lines, respectively. T47D cells were plated at 20,000 cells per well in 50 μL in RPMI medium supplemented with 10% FBS and 0.2 units/mL insulin, in 384 well plates. SKBR3 cells were plated at 25,000 cells per well in 50 μL in McCoy's 5A medium supplemented with 10% FBS, in 384 well plates. Cells were plated using a Combi Multidrop reagent dispenser (ThermoFisher), and placed in 5% CO2, 37° C. incubator overnight to adhere.
(§2) The next day, cells were treated with either compounds or vehicle (DMSO) in a 12-fold dose response curve of 1:3 dilutions, with 5 μM and 10 μM as the top concentrations for the T47D and SKBR3 cell lines, respectively. Compound treatment was facilitated via the D300e digital dispenser (Tecan), with a maximum DMSO concentration of 0.5%. Following compound addition, cell plates were incubated for 2 hours in 5% CO2, 37° C. incubator. The SKBR3 cells were stimulated and treated with 70 ng/ml PDGF-BB ligand (ThermoFisher) for the remaining 15 minutes of the incubation. Following compound incubation, compound and media was aspirated from the cells and 25 μL of supplemented lysis buffer was added per well, and incubated for 45 minutes at room temperature, shaking at 600 rpm. Next, 16 μL of cell lysate was added to a 384 well low volume ProxyPlate (Perkin Elmer/Revvity) mixed with 4 μL of HTRF antibodies (1:1 Eu Cryptate+d2 Cryptate). HTRF supplemented lysis buffer and antibody reagents were used from the phosphor-AKT(S473) HTRF assay kit (CisBio/Revvity), following manufacturers protocol recommendations. Plates were sealed and incubated at 4° C. overnight.
(§3) The following day, plates were centrifuged for 1 minute at 1000 rpm, and read on a PHERAstar plate reader. IC50 values were calculated using Spotfire software.

[2] = system: SKBR3 (PI3Kα-Wild Type) cell line; experiment: HTRF phospho-AKT(S473) cell assay in SKBR3 cells; assay type: cell-based, human
Description: as §1, §2, §3

[3] = Homo sapiens; T47D (PI3Kα-H1047R) cells, HTRF phospho-AKT(S473), 2 hours compound incubation
[4] = Homo sapiens, SK-BR-3; SKBR3 (PI3Kα-Wild Type) cells, HTRF phospho-AKT(S473), 2 hours compound incubation, PDGF-BB stimulated
[5] = Homo sapiens; HTRF phospho-AKT(S473), T47D (PI3Kα-H1047R) cells, 2 hours compound incubation
[6] = Homo sapiens, SK-BR-3; HTRF phospho-AKT(S473), SKBR3 (PI3Kα-Wild Type) cells, 2 hours compound incubation, PDGF-BB stimulated

## Cc1cc([C@@H](C)Nc2ccc(Cl)nc2C(=O)NS(=O)(=O)[C@H]2C[C@@H](O)C2)c2nc(N3Cc4ccc(F)cc4C3)n(C)c(=O)c2c1 (relative stereo) [Compound 337, 6-chloro-3-(((R)-1-(2-(5-fluoroisoindolin-2-yl)-3,6-dimethyl-4-oxo-3,4-dihydroquinazolin-8-yl)ethyl)amino)-N-(((1S*,3S*)-3-hydroxycyclobutyl)sulfonyl)picolinamide]
[1]; [3]
  pIC50: > 6.60
[2]; [4]
  pIC50: 5.30 to 6.00

## Cc1cc([C@@H](C)Nc2ccc(Cl)nc2C(=O)NS(C)(=O)=O)c2nc(N3C[C@@H]4C[C@H](c5cc[nH]n5)[C@H]3C4)n(C)c(=O)c2c1 (relative stereo) [Compound 347, 3-(((R)-1-(2-((1R,4R,6R*)-6-(1H-pyrazol-3-yl)-2-azabicyclo[2.2.1]heptan-2-yl)-3,6-dimethyl-4-oxo-3,4-dihydroquinazolin-8-yl)ethyl)amino)-6-chloro-N-(methylsulfonyl) picolinamide]
[1]; [3]
  pIC50: 6.30 to 6.60
[2]; [4]
  pIC50: ≤ 5.30

## Cc1cc([C@@H](C)Nc2ccc(Cl)nc2C(=O)NS(C)(=O)=O)c2nc(N3C[C@H]4C[C@@H]3C[C@H]4c3ccn(C)n3)n(C)c(=O)c2c1 (relative stereo) [Compound 355, 6-chloro-3-(((R)-1-(3,6-dimethyl-2-((1R*,4S*,5R*)-5-(1-methyl-1H-pyrazol-3-yl)-2-azabicyclo[2.2.1]heptan-2-yl)-4-oxo-3,4-dihydroquinazolin-8-yl)ethyl)amino)-N-(methylsulfonyl) picolinamide]
[1]; [3]
  pIC50: > 6.60
[2]; [4]
  pIC50: 5.30 to 6.00

## Cc1cc([C@@H](C)Nc2ccc(Cl)nc2C(=O)NS(C)(=O)=O)c2nc(N3C[C@@H]4C[C@H]3C[C@@H]4c3ccn(C)n3)n(C)c(=O)c2c1 (relative stereo) [Compound 356, 6-chloro-3-(((R)-1-(3,6-dimethyl-2-((1R*,4S*,5R*)-5-(1-methyl-1H-pyrazol-3-yl)-2-azabicyclo[2.2.1]heptan-2-yl)-4-oxo-3,4-dihydroquinazolin-8-yl)ethyl)amino)-N-(methylsulfonyl) picolinamide]
[1]; [3]
  pIC50: > 6.60
[2]; [4]
  pIC50: 5.30 to 6.00

## CO[C@H]1CC[C@@H](n2ncc(-c3nc4c([C@@H](C)Nc5ccc(Cl)nc5C(=O)NS(C)(=O)=O)cc(C)cc4c(=O)n3C)c2C)CC1 (relative stereo) [Compound 380, 6-chloro-3-(((R)-1-(2-(1-((1S*,4S*)-4-methoxycyclohexyl)-5-methyl-1H-pyrazol-4-yl)-3,6-dimethyl-4-oxo-3,4-dihydroquinazolin-8-yl)ethyl)amino)-N-(methylsulfonyl) picolinamide]
[1]; [3]
  pIC50: > 6.60
[2]; [4]
  pIC50: ≤ 5.30

## Cc1cc([C@@H](C)Nc2ccc(Cl)nc2C(=O)NS(C)(=O)=O)c2nc(N3C[C@H]4C[C@@H]3C[C@@H]4c3nn(C)cc3F)n(C)c(=O)c2c1 (relative stereo) [Compound 443, 6-chloro-3-(((R)-1-(2-((1R*,4S*,5S*)-5-(4-fluoro-1-methyl-1H-pyrazol-3-yl)-2-azabicyclo[2.2.1]heptan-2-yl)-3,6-dimethyl-4-oxo-3,4-dihydroquinazolin-8-yl)ethyl)amino)-N-(methylsulfonyl) picolinamide]
[1]; [5]
  pIC50: 6.30 to 6.60
[2]; [6]
  pIC50: 5.30 to 6.00

## Cc1cc([C@@H](C)Nc2ccc(Cl)nc2C(=O)NS(C)(=O)=O)c2nc(N3C[C@@H]4C[C@H]3C[C@@H]4c3nn(C)cc3F)n(C)c(=O)c2c1 (relative stereo) [Compound 444, 6-chloro-3-(((R)-1-(2-((1R*,4S*,5R*)-5-(4-fluoro-1-methyl-1H-pyrazol-3-yl)-2-azabicyclo[2.2.1]heptan-2-yl)-3,6-dimethyl-4-oxo-3,4-dihydroquinazolin-8-yl)ethyl)amino)-N-(methylsulfonyl) picolinamide]
[1]; [5]
  pIC50: 6.30 to 6.60
[2]; [6]
  pIC50: ≤ 5.30

## Cc1cc([C@@H](C)Nc2ccc(Cl)nc2C(=O)NS(C)(=O)=O)c2nc(N3CCC[C@H](c4cnc(C)cn4)C3)n(C)c(=O)c2c1 (relative stereo) [Compound 585, 6-chloro-3-(((R)-1-(3,6-dimethyl-2-((R*)-3-(5-methylpyrazin-2-yl)piperidin-1-yl)-4-oxo-3,4-dihydroquinazolin-8-yl)ethyl)amino)-N-(methylsulfonyl) picolinamide]
[1]; [5]
  pIC50: 6.30 to 6.60
[2]; [6]
  pIC50: ≤ 5.30

## Cc1cc([C@@H](C)Nc2ccc(Cl)nc2C(=O)NS(C)(=O)=O)c2nc(N3CCC[C@@H](c4cnc(C)cn4)C3)n(C)c(=O)c2c1 (relative stereo) [Compound 586, 6-chloro-3-(((R)-1-(3,6-dimethyl-2-((R*)-3-(5-methylpyrazin-2-yl)piperidin-1-yl)-4-oxo-3,4-dihydroquinazolin-8-yl)ethyl)amino)-N-(methylsulfonyl) picolinamide]
[1]; [5]
  pIC50: 6.30 to 6.60
[2]; [6]
  pIC50: ≤ 5.30

## Cc1cc([C@@H](C)Nc2ccc(Cl)nc2C(=O)NS(C)(=O)=O)c2nc(N3CCC[C@@H](c4ncc(Cl)cn4)C3)n(C)c(=O)c2c1 (relative stereo) [Compound 588, 6-chloro-3-(((R)-1-(2-((R*)-3-(5-chloropyrimidin-2-yl)piperidin-1-yl)-3,6-dimethyl-4-oxo-3,4-dihydroquinazolin-8-yl)ethyl)amino)-N-(methylsulfonyl) picolinamide]
[1]; [5]
  pIC50: 5.30 to 6.00
[2]; [6]
  pIC50: ≤ 5.30

## Cc1cc([C@@H](C)Nc2ccc(Cl)nc2C(=O)NS(C)(=O)=O)c2nc(N3CC[C@H](c4ccnc(C)n4)C3)n(C)c(=O)c2c1 (relative stereo) [Compound 599, 6-chloro-3-(((R)-1-(3,6-dimethyl-2-((R*)-3-(2-methylpyrimidin-4-yl)pyrrolidin-1-yl)-4-oxo-3,4-dihydroquinazolin-8-yl)ethyl)amino)-N-(methylsulfonyl) picolinamide]
[1]; [5]
  pIC50: 6.30 to 6.60
[2]; [6]
  pIC50: ≤ 5.30

## Cc1cc([C@@H](C)Nc2ccc(Cl)nc2C(=O)NS(C)(=O)=O)c2nc(N3CC[C@@H](c4ccnc(C)n4)C3)n(C)c(=O)c2c1 (relative stereo) [Compound 600, 6-chloro-3-(((R)-1-(3,6-dimethyl-2-((R*)-3-(2-methylpyrimidin-4-yl)pyrrolidin-1-yl)-4-oxo-3,4-dihydroquinazolin-8-yl)ethyl)amino)-N-(methylsulfonyl) picolinamide]
[1]; [5]
  pIC50: 6.30 to 6.60
[2]; [6]
  pIC50: 5.30 to 6.00

## Cc1cc([C@@H](C)Nc2ccc(Cl)nc2C(=O)NS(C)(=O)=O)c2nc(N3CCC[C@@H](c4cnc(C)c(C#N)c4)C3)n(C)c(=O)c2c1 (relative stereo) [Compound 614, 6-chloro-3-(((R)-1-(2-((R*)-3-(5-cyano-6-methylpyridin-3-yl)piperidin-1-yl)-3,6-dimethyl-4-oxo-3,4-dihydroquinazolin-8-yl)ethyl)amino)-N-(methylsulfonyl) picolinamide]
[1]; [5]
  pIC50: 6.00 to 6.30
[2]; [6]
  pIC50: ≤ 5.30

## Cc1cc([C@@H](C)Nc2ccc(Cl)nc2C(=O)NS(C)(=O)=O)c2nc(N3CCC[C@H](c4cnc(C)c(C#N)c4)C3)n(C)c(=O)c2c1 (relative stereo) [Compound 615, 6-chloro-3-(((R)-1-(2-((R*)-3-(5-cyano-6-methylpyridin-3-yl)piperidin-1-yl)-3,6-dimethyl-4-oxo-3,4-dihydroquinazolin-8-yl)ethyl)amino)-N-(methylsulfonyl) picolinamide]
[1]; [5]
  pIC50: 6.30 to 6.60
[2]; [6]
  pIC50: 5.30 to 6.00
